Legend:
[1] = system: SERCA1 exon 22; assay: RT-PCR alternative splicing assay, SERCA1 exon 22; format: cell-based, human; settings: DM1 myoblasts, 20 μM, 7 days; WT 59%, DM1 less than 2% (FIG. 8B)
Protocol: Human myoblasts were obtained from the Myosix institute associated with the Association Frangaise contre les Myopathies (AFM). Five primary myoblast lines were obtained as controls, and one line from a DM1 patient with a 3.8 Kb CTG triplet amplification corresponding to approximately 1250 CTG repeats. The human myoblasts are cultivated in HAM-F10 media (SIGMA N6635) with 15% FBS, 1% chick embryo extract, and 390 ng/ml of dexamethasone. One day before adding compounds, 2×10^5 cells were plated in 100 mm plates (for CUGBP1 western blot or RT-PCR alternative splicing assay) or 2×10^4 cells/well are seeded in 12-well plates containing 12 mm round glass coverslips (for FISH to detect RNA foci). […]
For Western blots, CUGBP1 was detected with the 3B1-3D11 monoclonal antibody (mAb) (SIGMA C5112) and GAPDH was detected with the 6C5 mAb (Millipore MAB374). The enhanced chemiluminescence signal (ECL) was acquired and quantified with the ChemiDoc™ MP imaging system (Bio-Rad). […] The alternative splicing of the hnRNPA2/B1 transcript was detected with the primers 5′-[…]-3′ (SEQ ID NO:7) and 5′-[…]-3′ (SEQ ID NO:8). PCR was performed with Taq using standard conditions but the number of amplification cycles was optimized to be in the quantitative range for each gene. […]

[2] = system: MBNL1 mRNA exon 7; assay: RT-PCR alternative splicing assay, MBNL1 exon 7; format: cell-based, human; settings: DM1 myoblasts, 5 to 60 μM, 7 days (FIG. 12B)

Structure (SMILES) | inclusion of SERCA1 exon 22, of total transcripts [1] [%] | dose-response effect on splicing of MBNL1 mRNA [2]
CCCN(CCC)S(=O)(=O)c1ccc(NS(=O)(=O)Cc2ccccc2)cc1 [Compound 15] | 17 | 
CCCc1c(C(=O)N(Cc2ccccc2)Cc2cccs2)cnn1-c1ccccc1 [Compound 32] |  | clear dose-response effect
